From patent publication US11565003B2, “Mechanical opening of lipid bilayers by molecular nanomachines” (William Marsh Rice University, priority 2016, dated 2023)

Columns and labels:
NIH 3T3 cells [1] = experiment: UV-activated nanomechanical necrosis, live cell confocal microscopy, NIH 3T3; format: cell-based, mouse; conditions: 355 nm UV; for % acceleration for full necrosis: versus UV upon blank cells
Protocol: Following the synthetic bilipid vesicle experiments, nanomechanical action upon live cells was studied using confocal microscopy aided by a super-resolution technique called Phase Modulation Nanoscopy. Applicants used two experimental methods. In the first method (Method A), the molecular motors were loaded into the cell media and the imaging was initiated within 5 minutes to 24 hours. In the second method, (Method B), the molecular motors were loaded into the cell media, incubated for 30 minutes to 24 hours, and then washed three times with fresh molecular motor-free media before imaging. […]
(§1) Microscopy cells were seeded in untreated iBibi 100 μL live cell channels and allowed to grow to 40% to 60% confluence, at 37° C. in 5% CO2. At this stage, the medium was replaced and cells were treated with the studied nanomachines and co-stains as appropriate, with 0.1% DMSO (as detailed above) present in the final imaging medium. For live cell imaging, DMEM/F12 media (10% FBS) lacking phenol red was used from this point onwards. Following incubation, where Method B was used, the channels were washed with live cell imaging media and imaged using a purpose build incubator housing the microscope maintaining 37° C., 5% CO2 and 10% humidity.
(§2) All live cell imaging experiments used either NIH 3T3 mouse skin fibroblast cells, PC-3 cells, a grade 3 human prostate adenocarcinoma, or Chinese hamster ovary cells (CHO). These are all well-studied cell lines with discrete morphological compositions. Each molecular machine was used as a stock solution at 0.10 to 1.00 μM with total dimethyl sulfoxide (DMSO) concentrations not exceeding 0.1% in the final cell media in order to avoid unwanted cell membrane permeabilization, the DMSO being required for solubility of the organic nanomachines. All loading experiments are carried out in a light-suppressed manner and the possibility of induced or accelerated uptake due to interaction between the molecular motors and the applied co-stain has been eliminated using a series of individual and reversed loading experiments.
(§3) All experimental imaging parameters (i.e., laser beam size, confocal pinhole size, laser intensity, line scanning speed, scanning area (field of view, FOV), and line averaging sequences) were kept constant throughout the experiments. The accuracy and errors associated with the establishment of accelerated necrosis are determined based on one dual channel imaging sequence, which takes 15 seconds in total. This imaging sequence has been carefully established using untreated live cells.
(§4) Steady state fluorescence images were recorded using a PhMoNa enhanced Leica SP5 II LSCM equipped with a HCX PL APO 63×/1.40 NA LambdaBlue Oil immersion objective. As an initial control experiment to establish the UV-induced cell toxicity threshold, while mitigating voxel exposure and ensuring sufficient laser dwell time, an imaging sequence has been established to monitor cell morphological and physiological changes as a function of time. All experiments used cell-line-determined culture medium containing 0.1% DMSO.
The applied 100 Hz detection sequence was based on a bidirectional dual-channel continuous scanning method where a minimalistic non-damaging visible laser light (458 nm, 0.2 mW) is used in conjunction with the above detailed UV exposure. This is set as a 2 line/scan accumulation parallel acquisition sequence that is recorded as a function of time. Studied channels correspond to transmission images and UV-induced mitochondrial auto-fluorescence detected at 460 to 550 nm. Applicants further confirmed that the effectiveness of monitoring the UV-activated nanomechanical action on live cells using a conventional CW mercury-arc excitation source equipped with an epi-fluorescence setup consisting of a Zeiss Axiovert 200M inverted microscope, as discussed in FIGS. 18A-C. […]

PC-3 cells [2] = experiment: UV-activated nanomechanical necrosis, live cell confocal microscopy, PC-3; format: cell-based, human; conditions: for Time of Full Necrosis / Time of Initial Necrosis / % acceleration for full necrosis: 355 nm UV; for % acceleration for full necrosis: versus UV upon blank cells
Protocol: Following the synthetic bilipid vesicle experiments, nanomechanical action upon live cells was studied using confocal microscopy aided by a super-resolution technique called Phase Modulation Nanoscopy. Applicants used two experimental methods. In the first method (Method A), the molecular motors were loaded into the cell media and the imaging was initiated within 5 minutes to 24 hours. In the second method, (Method B), the molecular motors were loaded into the cell media, incubated for 30 minutes to 24 hours, and then washed three times with fresh molecular motor-free media before imaging.
Next, Applicants used the smaller nanomachine, 3. Initial control experiments (blank) were performed without nanomachines being present. UV-induced (355 nm) PC-3 necrosis is not initiated until approximately scan 20 (corresponding to 300 second continuous scanning UV exposure, 400 nJ/voxel total dwell time), characterized by massive disruption and rupture of the mitochondrial network and subsequent well-pronounced auto-fluorescent signal detectable in the nucleoli and nucleus wall (FIG. 7A). This is observable by the nucleoli membrane permeabilization and DNA damage at the onset of necrosis. The UV-induced necrosis reaches final stages at approximately scan 40 (corresponding to 600 seconds) that is consistent with characteristic extracellular membrane rupture and homogenous cytosolic auto-fluorescence, indicating loss of cellular organelle boundaries.
as §1, §2, §3
as §4, with “DMSO. […]” for “DMSO.”

NIH 3T3 cells [3] = experiment: Two-photon near-infra red activation, PI dye entry, NIH 3T3; format: cell-based, mouse; conditions: NIH 3T3, 1 μM, PI 200 nM
Protocol: (§5) Two-photon microscopy studies of NIH 3T3 cells were executed on a Nikon E600 upright confocal microscope coupled to a tuneable (710-950 nm Coherent MaiTai) multiphoton source operating at (20%) 240 mW power using a 166 lps scan speed and 128×128 pixel frame resolution for MP-illumination. Images (512×512 pixel, 166 lps) were recorded using a 543 nm (1 mW HeNe) laser combined with a 560 nm long-pass filter to record PI (200 nM) fluorescence and follow the onset of induced necrosis.
(§6) Two photon live cell microscopy studies were also executed on a Nikon E600 upright confocal microscope coupled to a tuneable (710-950 nm Coherent MaiTai) multiphoton source operating at (19.8%) 240 mW power at 720 nm using 166 lines/sec scan speed and 128×128 pixel frame resolution for MP-illumination. An oil immersion Nikon IR objective (×60/1.4 NA) was used. Images (512×512 pixel, 166 l/s) were recorded using a 543 nm (1 mW HeNe) laser combined with a 570 nm long-pass filter to record PI dyes (200 nM). Fluorescence was measured as 2 frame averaged images in order to follow the onset of induced necrosis. Necrosis times have been assigned to detectable PI signals in the nucleolus.

PC-3 cells [4] = experiment: Two-photon near-infra red activation, PI dye entry, PC-3; format: cell-based, human; conditions: PC-3, 1 μM, PI 200 nM
Protocol: as §5, §6

HEK293 cells = experiment: Whole cell patch clamp electrophysiology; format: cell-based, human
Protocol: FIGS. 16A-B show whole-cell patch clamp studies of the dynamic effects of UV-induced molecular mechanical action of compound 3 upon HEK293 cells. Also shown are control studies using compound 3 without UV activation, UV-exposed rotor-free control molecule 5, and no molecular additives x. Compounds 3 and 5 were used at 1.0 μM concentrations. […] Similarly, the rotor-free compound 5, and no molecular additive x, show no inward currents during UV illumination (center two traces). Cells were held at −70 mV in voltage clamp mode and UV exposure began 15 seconds after the start of the recording. Each recording is a biological replicate and all traces are shown (n=4 recordings from different cells for 3+UV; n=3 recordings from different cells for each other condition). […] The white arrows (lower right image) highlight membrane blebbing that appears only in the cells treated with UV-activated compound 3. The scale bar represents 10 μm and is applicable for each micrograph.
The dynamic effects of nanomechanical action upon cellular membranes were then studied through the whole cell patch clamp electrophysiology of human embryonic kidney 293 cells (HEK293) commonly used for electrophysiological interrogation. […] These inward currents were not observed in the absence of UV illumination or during UV illumination of non-rotor-bearing control 5 or UV illumination of untreated cells (FIG. 16A).

[5] = NIH 3T3, Method B (washed three times)
[6] = PC-3, Method B (washed three times)

| Compound | Time of Full Necrosis (NIH 3T3 cells [1]; NIH 3T3, Method A (no washing)) [s] | Time of Initial Necrosis (NIH 3T3 cells [1]; NIH 3T3, Method A (no washing)) [s] | % acceleration for full necrosis (NIH 3T3 cells [1]; NIH 3T3, Method A) [%] | Time of Full Necrosis (NIH 3T3 cells [1]; [5]) [s] | Time of Initial Necrosis (NIH 3T3 cells [1]; [5]) [s] | % acceleration for full necrosis (NIH 3T3 cells [1]; NIH 3T3, Method B) [%] | selectivity for targeted PC-3 cells over non-targeted control cells (in words) (PC-3 cells [2]; NIH 3T3 and CHO as non-targeted controls) | Time of Full Necrosis (PC-3 cells [2]; PC-3, Method A (no washing)) [s] | Time of Initial Necrosis (PC-3 cells [2]; PC-3, Method A (no washing)) [s] | % acceleration for full necrosis (PC-3 cells [2]; PC-3, Method A) [%] | Time of Full Necrosis (PC-3 cells [2]; [6]) [s] | Time of Initial Necrosis (PC-3 cells [2]; [6]) [s] | % acceleration for full necrosis (PC-3 cells [2]; PC-3, Method B) [%] | PI dye entry upon two-photon near-infra red illumination (in words) (NIH 3T3 cells [3]) | PI dye entry upon two-photon near-infra red illumination (in words) (PC-3 cells [4]) | PI entry into cells upon UV-activated membrane disruption (in words) (PC-3 cells [2]; PC-3, propidium iodide 0.10 μM in medium) | membrane currents without UV illumination (in words) (HEK293 cells; HEK293, 1.0 μM, 4 minute recording, no UV) | inward ionic currents during UV illumination (in words) (HEK293 cells; HEK293, Method B, UV 355 nm, 1.0 μM) | radius of membrane blebs (HEK293 cells; HEK293, after UV illumination) [μm] |
| --- | --- | --- | --- | --- | --- | --- | --- | --- | --- | --- | --- | --- | --- | --- | --- | --- | --- | --- | --- |
| C[C@H](NC(=O)[C@H](CCC(=O)O)NC(=O)CNC(=O)[C@H](CC(=O)O)NC(=O)CCc1cn(CCC#Cc2ccc3c(c2)/C(=C2/c4c(ccc5ccccc45)C[C@H]2C)c2cc(C#CCCN=[N+]=[N-])ccc2S3)nn1)C(N)=O [Compound 8] | 375 | 150 | 37.5 | 360 | 150 | 40 | No selectivity was observed | 360 | 150 | 40 | 360 | 150 | 40 | resulting in Propidium Iodide (PI) dyes entering | resulting in Propidium Iodide (PI) dyes entering | – | – | – | – |
| C[C@@H]1Cc2ccc3ccccc3c2C1=C1c2cc(C#CCCO)ccc2Sc2ccc(C#CCCO)cc21 (racemic) [Compound 3] | 300 | 150 | 50 | – | – | – | – | 300 | 135 | 50 | – | – | – | resulting in Propidium Iodide (PI) dyes entering | resulting in Propidium Iodide (PI) dyes entering | PI enters the cell | no change in membrane currents | inward ionic currents were produced | 3.8±0.2 |
